According to patent US20180360782A1, “METHOD OF MODULATING RIBONUCLEOTIDE REDUCTASE” (CASE WESTERN RESERVE UNIVERSITY, priority 2015, published 2018):
pIC50: −log10 of the molar value. Read-outs that look alike come from different tables or passages of the source. Square brackets hold non-standard residues; d marks the D form. Peptide text beside a SMILES is read from it. ξ: configuration not given here. ξY = NC(Cc1ccc(O)cc1)C(=O)O; Sar = CNCC(=O)O

Columns and labels:
hRR (hRRM1 and hRRM2) [1] = target: T1, hRR (hRRM1 and hRRM2) (Homo sapiens, UniProt P23921); experiment: biochemical
T1 sequence (P23921 1-792): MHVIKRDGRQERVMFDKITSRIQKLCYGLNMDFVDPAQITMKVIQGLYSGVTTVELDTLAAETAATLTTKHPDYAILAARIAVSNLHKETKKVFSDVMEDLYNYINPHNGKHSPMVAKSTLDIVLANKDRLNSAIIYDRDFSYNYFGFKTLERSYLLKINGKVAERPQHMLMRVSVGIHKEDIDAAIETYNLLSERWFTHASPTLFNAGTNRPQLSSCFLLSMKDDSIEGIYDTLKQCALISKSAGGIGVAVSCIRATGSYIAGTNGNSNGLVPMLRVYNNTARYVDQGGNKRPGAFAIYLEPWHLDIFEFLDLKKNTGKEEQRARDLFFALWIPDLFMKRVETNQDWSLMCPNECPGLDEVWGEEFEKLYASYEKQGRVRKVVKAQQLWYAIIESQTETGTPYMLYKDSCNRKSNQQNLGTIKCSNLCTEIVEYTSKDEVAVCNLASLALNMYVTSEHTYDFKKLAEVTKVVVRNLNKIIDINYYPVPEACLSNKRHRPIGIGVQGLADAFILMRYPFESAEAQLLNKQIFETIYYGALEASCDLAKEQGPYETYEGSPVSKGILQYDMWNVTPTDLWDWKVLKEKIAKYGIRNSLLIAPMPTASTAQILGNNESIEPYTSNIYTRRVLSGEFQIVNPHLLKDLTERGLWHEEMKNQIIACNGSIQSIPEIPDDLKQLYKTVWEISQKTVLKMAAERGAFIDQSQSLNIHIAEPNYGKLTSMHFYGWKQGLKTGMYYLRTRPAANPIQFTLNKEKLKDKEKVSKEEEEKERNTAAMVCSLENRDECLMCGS
T1 sequence (P31350 1-389 partner): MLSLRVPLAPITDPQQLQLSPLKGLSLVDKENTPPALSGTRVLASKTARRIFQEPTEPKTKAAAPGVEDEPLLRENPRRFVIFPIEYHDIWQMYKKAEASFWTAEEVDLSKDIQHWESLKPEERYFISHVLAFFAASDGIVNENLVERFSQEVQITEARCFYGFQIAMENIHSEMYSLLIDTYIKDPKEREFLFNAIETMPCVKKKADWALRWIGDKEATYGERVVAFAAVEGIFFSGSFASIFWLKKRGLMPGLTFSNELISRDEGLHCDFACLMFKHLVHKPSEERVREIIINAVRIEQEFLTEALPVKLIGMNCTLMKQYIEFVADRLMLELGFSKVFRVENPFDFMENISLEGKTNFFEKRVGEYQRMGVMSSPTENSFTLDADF
Description: (§2) The buffer solution (50 mM HEPES at pH 7.6, 5% (v/v) glycerol, 0.1M KCl) and the hRRM2 protein in the buffer solution were prepared under deoxygenated conditions. Both solutions were taken into the glove box and FeNH4SO4 was dissolved in the buffer solution. 5 equivalents of Fe (II) per hRRM2 dimer from FeNH4SO4 (determined by Ferrozine assay) was added to the protein solution and incubated at 4° C. in the glove box. Upon removal of the protein from the glove box, freshly prepared O2-saturated buffer solution (50 mM HEPES at pH 7.6, 5% (v/v) glycerol, 0.1M KCl) was added. Excess iron was removed by S200 10/300 size exclusion chromatography. […] The reaction mixture was pre-incubated for 3 min at 37° C., and 30 μL aliquots were sampled at fixed time intervals after initiating the reaction. Reactions were quenched by immersion in a boiling water bath, cooling, and treatment with alkaline phosphatase. The product ^14-dADP that formed during the reaction was separated from substrate-ADP using boronate affinity chromatography. ^14-dADP was quantified by liquid scintillation counting using a Beckman LS6500 liquid scintillation counter.
(§3) Briefly, boronate chromatography was used to separate the product.

select cancer cell lines = experiment: Cellular IC50 of NSAAH library (Table 3); format: cell-based
Description: (§1) Cell were maintained in standard tissue culture media (RPMI1640, +10% fetal bovine serum, plus antibiotic) and grown in a standard humidified 5% CO2 incubator at 37° C. Cells were regularly tested using the MycoAlert detection kit (Lonza Biologics) and shown to be mycoplasma-free. Initial compound screening was performed using both MDA-MB-23 land HCT-116 cell lines. For moderate throughput screening (up to 120 drugs per experiment), cells were seeded into 96 well plates and allowed to attach overnight. The following day media was removed and replaced with fresh compound containing media. Each compound was tested against both cell lines at 3 concentrations; 1 μM, 10 μM and 50 μM, in duplicate. Cells were incubated with compound containing media for three days in a standard 5% CO2 tissue culture incubator. Cell growth was assessed after 3 days using the DNA dye binding assay, as originally described by LaBarca and Paigen. Relative growth was independently calculated for each cell line, based on DNA content from corresponding cells grown in control media plus diluent (DMSO). Additional growth inhibition experiments utilized either the DNA binding assay or the Promega CellTiter 96® (MTT reduction) assay, with similar results. For detailed growth inhibition assays, cells (1500-2500 depending on the growth characteristics of the cell line) were seeded in standard 96 well tissue culture plates and allowed to attach overnight. The following day media was removed and replaced with drug containing media. Each dose group consisted of 5 replicate wells, and results are reported a Relative Growth, calculated as DNA or MTT reduction per well, divided by the signal from untreated cells, both harvested 3 days after drug administration.

hRR (hRRM1 and hRRM2) [2] = target: T1, hRR (hRRM1 and hRRM2); details: read-out: Cell-Free IC50; NSAAH library against hRR
Description: as §2, §3

[3] = test system: MDA-MB-231 and HCT-116 cell lines; experiment: Growth inhibition screening assay (In Cell IC50); format: cell-based, human; details: 3 days with compound; for pIC50: Homo sapiens, 72 h
Description: as §1

[4] = test system: MDA-MB-231, HCT116, A549 and Panc1 cell lines; experiment: Detailed growth inhibition studies, median effect dose; format: cell-based; details: Homo sapiens
Description: Cell were maintained in standard tissue culture media (RPMI1640, +10% fetal bovine serum, plus antibiotic) and grown in a standard humidified 5% CO2 incubator at 37° C. […] For moderate throughput screening (up to 120 drugs per experiment), cells were seeded into 96 well plates and allowed to attach overnight. The following day media was removed and replaced with fresh compound containing media. Each compound was tested against both cell lines at 3 concentrations; 1 μM, 10 μM and 50 μM, in duplicate. Cells were incubated with compound containing media for three days in a standard 5% CO2 tissue culture incubator. Cell growth was assessed after 3 days using the DNA dye binding assay, as originally described by LaBarca and Paigen. Relative growth was independently calculated for each cell line, based on DNA content from corresponding cells grown in control media plus diluent (DMSO). […] The following day media was removed and replaced with drug containing media.
Over 190 compounds were screened for their ability to inhibit growth and/or induce cell death in established cancer cell lines.

COc1ccc(C(=O)N/N=C/c2c(O)ccc3ccccc23)cc1
pIC50 (hRR (hRRM1 and hRRM2) [1]): 4.03
pIC50 (select cancer cell lines): < 5.00

O=S(=O)(N/N=C/c1c(O)ccc2ccccc12)c1ccccc1
pIC50 (hRR (hRRM1 and hRRM2) [2]): 3.91
pIC50 (select cancer cell lines): < 5.00

CCCCCCCCCCCCCCNC(=O)[C@@H](N)CCN
In Cell IC50 (μM) [3]: ne

O=C(N/N=C/c1c(O)ccc2ccccc12)OCc1ccccc1
Cellular IC50 (select cancer cell lines): No cytotoxicity

Nc1ccccc1C(=O)N/N=C/c1c(O)ccc2ccccc12
Cellular IC50 (select cancer cell lines): No cytotoxicity

O=C(N/N=C/c1c[nH]c2ccc([N+](=O)[O-])cc12)c1ccccc1O
Cellular IC50 (select cancer cell lines): No cytotoxicity

Oc1ccc2cc(-c3cn(-c4ccc5[nH]ccc5c4)nn3)ccc2c1
Cellular IC50 (select cancer cell lines): No cytotoxicity

O=c1oc(-c2ccccc2-c2ccccc2-c2nc3ccccc3c(=O)o2)nc2ccccc12
pIC50 (hRR (hRRM1 and hRRM2) [1]): 4.40
Cellular IC50 (select cancer cell lines): No cytotoxicity

O=C1C=Cc2cc(C3=NC4C=CC=CC4S(=O)(=O)N3)c(=O)oc2C1 (stereo not shown)
pIC50 (hRR (hRRM1 and hRRM2) [1]): 4.88
Cellular IC50 (select cancer cell lines): No cytotoxicity

O=[N+]([O-])c1ccc(S(=O)(=O)N/N=C/c2c(O)ccc3ccccc23)cc1
Cellular IC50 (select cancer cell lines): No cytotoxicity

COc1cc(C(=O)N/N=C/c2c(O)ccc3ccccc23)ccc1O
pIC50 (hRR (hRRM1 and hRRM2) [1]): 3.16
Cellular IC50 (select cancer cell lines): No cytotoxicity

O=c1nc(-n2cc(-c3ccc4cc(O)ccc4c3)nn2)cc[nH]1
pIC50 (hRR (hRRM1 and hRRM2) [1]): 3.57
Cellular IC50 (select cancer cell lines): No cytotoxicity

O=C(N/N=C/c1c(O)ccc2ccccc12)c1cccnc1
pIC50 (hRR (hRRM1 and hRRM2) [2]): 5.28
Cellular IC50 (select cancer cell lines): No cytotoxicity

Nc1ccc(C(=O)N/N=C/c2c(O)ccc3ccccc23)cc1Cl
pIC50 (select cancer cell lines): < 5.00

O=[N+]([O-])c1ccc(N/N=C/c2c(O)ccc3ccccc23)cc1
pIC50 (select cancer cell lines): < 5.00

O=C(O)c1ccccc1-c1ccccc1C(=O)c1ccc2ccccc2n1
pIC50 (hRR (hRRM1 and hRRM2) [1]): 5.42
Cellular IC50 (select cancer cell lines): No cytotoxicity

CCOC(=O)C(NC(=O)CN[C@H]1CCCc2sccc21)C(=O)OCC
In Cell IC50 (μM) [3]: ne^b

Cc1ccc(C(=O)N/N=C/c2c(O)ccc3ccccc23)cc1
pIC50 (hRR (hRRM1 and hRRM2) [1]): 4.06
Cellular IC50 (select cancer cell lines): No cytotoxicity

Cc1cccc2c(/C=N/NC(=O)c3ccccc3O)c[nH]c12
Cellular IC50 (select cancer cell lines): No cytotoxicity

CNCC(=O)N[C@@H](CCCNC(=N)N)C(=O)N[C@H](C(=O)NC(Cc1ccc(O)cc1)C(=O)N[C@H](C(=O)N[C@@H](Cc1cnc[nH]1)C(=O)O)C(C)C)C(C)C (stereo partly shown) [compound 9] (H-[Sar]RV[ξY]VH-OH)
In Cell IC50 (μM) [3]: non-toxic

CCCCCCCCCCCCCCCC(=O)N[C@@H](CCCCN)C(=O)N[C@@H](CCCCN)C(=O)OC
In Cell IC50 (μM) [3]: ne

O=C(N/N=C/c1cc2ccccc2cc1O)c1ccccc1O
pIC50 (select cancer cell lines): < 5.00

OC(COc1ccc(OCC(O)CN2CCN(C3c4ccccc4-c4ccccc43)CC2)cc1)CN1CCN(C2c3ccccc3-c3ccccc32)CC1 (stereo not shown) [compound 2]
pIC50 ([4]; 72 h, read-out: median effect dose (Dm), growth inhibitory activity): 5.00 to 6.00
inhibition at 10 µM ([4]; read-out: growth inhibition): ~100%
pIC50 [3]: 5.10 to 5.52

COc1ccc(Br)cc1C(=O)N/N=C/c1c(O)ccc2ccccc12
pIC50 (select cancer cell lines): < 6.00

CCC(C)(C)c1ccc(OCCCCNC(=O)c2cc(Oc3ccc([N+](=O)[O-])cc3)c3ccccc3c2O)c(C(C)(C)CC)c1
In Cell IC50 (μM) [3]: ne^b

O=C(c1ccccc1O)n1cc(-c2c(O)ccc3ccccc23)nn1
pIC50 (hRR (hRRM1 and hRRM2) [1]): 5.09
Cellular IC50 (select cancer cell lines): No cytotoxicity

O=C(N/N=C/c1ccc2cc(O)ccc2c1)c1ccccc1O
pIC50 (select cancer cell lines): < 5.00

O=S(=O)(Cc1ccccc1)N/N=C/c1c(O)ccc2ccccc12
Cellular IC50 (select cancer cell lines): No cytotoxicity

OCc1ccccc1-n1cc(-c2ccc3cc(O)ccc3c2)nn1
pIC50 (hRR (hRRM1 and hRRM2) [1]): 3.22
Cellular IC50 (select cancer cell lines): No cytotoxicity

CCCOc1ccc(C(=O)OCCN(CC)CC)cc1NS(=O)(=O)/C=C/c1ccccc1 [compound 8]
In Cell IC50 (μM) [3]: ne^b

CC(NCCCCCO)c1cc(OCc2ccccc2)cc(OCc2ccccc2)c1 (stereo not shown)
In Cell IC50 (μM) [3]: non-toxic

O=C(Nc1ccccc1C(=O)O)c1ccc2ccccc2n1
pIC50 (hRR (hRRM1 and hRRM2) [1]): 4.82
Cellular IC50 (select cancer cell lines): No cytotoxicity

CCOC(=O)C[C@@H](CC(=O)NCCN[C@H](C)c1ccc(O)c(C(=O)OC)c1)OC(C)=O
In Cell IC50 (μM) [3]: ne^b

Oc1ccc(CCn2cc(-c3ccc4cc(O)ccc4c3)nn2)cc1
Cellular IC50 (select cancer cell lines): No cytotoxicity

Cc1c(-n2cc(-c3ccc4cc(O)ccc4c3)nn2)c(=O)n(-c2ccccc2)n1C
pIC50 (hRR (hRRM1 and hRRM2) [1]): 4.50
Cellular IC50 (select cancer cell lines): No cytotoxicity

CC1(C)C2CC(=O)C1C(CS(=O)(=O)N/N=C/c1c(O)ccc3ccccc13)C2 (stereo not shown)
pIC50 (hRR (hRRM1 and hRRM2) [2]): 3.53
Cellular IC50 (select cancer cell lines): No cytotoxicity

COc1cc(Br)ccc1C(=O)N/N=C/c1c(O)ccc2ccccc12
pIC50 (select cancer cell lines): < 5.00

O=C(N/N=C/c1c[nH]c2ccc(O)cc12)c1ccccc1O
pIC50 (select cancer cell lines): < 5.00

CN(C)c1ccc(C(=O)N/N=C/c2c(O)ccc3ccccc23)cc1
pIC50 (select cancer cell lines): < 5.00

Oc1ccc2ccccc2c1/C=N/NCc1ccccc1
pIC50 (select cancer cell lines): < 5.00

Cc1ccc(S(=O)(=O)N/N=C/c2c(O)ccc3ccccc23)cc1
pIC50 (hRR (hRRM1 and hRRM2) [2]): 5.17
Cellular IC50 (select cancer cell lines): No cytotoxicity

CC(C)(NC(=O)CN1C(=O)c2ccccc2C1=O)C(=O)NCCCC[C@H](NC(=O)CC(O)(C(F)(F)F)C(F)(F)F)C(=O)O [compound 6]
pIC50 [3]: 4.52

Oc1ccc2ccccc2c1/C=N/Nc1ccc(Br)cc1
pIC50 (select cancer cell lines): < 5.00

O=C(N/N=C/c1c(O)ccc2ccccc12)c1ccc([N+](=O)[O-])c(Cl)c1
Cellular IC50 (select cancer cell lines): No cytotoxicity
